Consider 53 compounds from patent US20210163489A1, “PYRAZOLOPYRIMIDINE DERIVATIVES AND THE COMPOSITIONS AND METHODS OF TREATMENT REGARDING THE SAME” (NysnoBio Ireland DAC, priority 2016, published 2021).

T1 sequence (O60260 whole entry, other chains not shown): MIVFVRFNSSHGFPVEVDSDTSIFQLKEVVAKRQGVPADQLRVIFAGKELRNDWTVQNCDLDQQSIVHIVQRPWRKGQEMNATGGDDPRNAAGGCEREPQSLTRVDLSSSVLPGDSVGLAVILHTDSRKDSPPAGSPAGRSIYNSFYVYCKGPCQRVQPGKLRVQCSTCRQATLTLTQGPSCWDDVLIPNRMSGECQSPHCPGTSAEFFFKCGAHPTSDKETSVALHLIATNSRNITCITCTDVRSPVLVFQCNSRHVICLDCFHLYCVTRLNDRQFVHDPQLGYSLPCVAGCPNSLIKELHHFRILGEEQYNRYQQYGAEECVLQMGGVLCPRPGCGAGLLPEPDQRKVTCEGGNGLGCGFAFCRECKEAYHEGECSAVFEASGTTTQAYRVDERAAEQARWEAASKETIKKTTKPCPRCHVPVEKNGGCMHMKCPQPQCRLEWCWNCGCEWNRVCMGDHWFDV

The first assay has as its target T1, Parkin (Homo sapiens, UniProt O60260).
T1 construct: Enzyme 3: Parkin-His tagged 203 μM (10.5 mg/ml)
In words: Parkin pUB auto-ubiquitinylation assay (TR-FRET).
Settings: not given
It counts as biochemical. The source says: A Parkin pUB Auto-ubiquitinylation Assay is used to evaluate a compound's potency to activate Parkin's ability to Auto-ubiquitinylate itself.
The principle of this assay is that the E3 Ligase Parkin catalyzes the transfer of Ubiquitin to target proteins, but also has the ability to auto-ubiquitinylate itself. The phospho-Ubiquition (pUb) added to the assay alters the Parkin to a state where small molecule activators can enable the Parkin to auto-ubiquitinylate though the E1-E2 cascade reaction. The use of a Eu cryptate Ubiquition and anti 6His-d2 that binds to the His tagged Parkin will give a signal when the Eu cryptate Ubiquition is auto-ubiquitinylate onto the Parkin which can be monitored by TR-FRET.
Similar to the Activity-based probe assay in Example 2, screening for activating compounds can be distinguished from the controls as follows:
100% activation signal=pUb activated Parkin+40 nM control activator in DMSO. 0% activation signal=pUb activated Parkin+DMSO only. Parkin activators can be identified by an increase of the 0% activation signal TR-FRET signal.
• Assay Plate: White 384 well plate (Corning 3572) • Enzyme 1: E1 (Ubiquitin-activating enzyme/UBE1 Boston Biochem E-305) • Enzyme 2: E2 (UBcH7/Ube2L3 Boston Biochem E2-640) • Enzyme 3: Parkin-His tagged 203 μM (10.5 mg/ml) • pUb: Phospho-Ubiquitin (S65) (Boston Biochem U-102) • Eu Cryptate Reagent: Ubiquitin Eu (CisBio 61UBIKLA) • DMSO: DMSO (Sigma-34869-2.5L) • Reaction Buffer: 50 mM HEPES, 50 mM NaCl, 1 mM MgCl2, 0.005% Tween 20, 0.1% • PF-127 (Fisher Scientific 50-310-494), pH 8.5 • Detection Buffer: 50 mM HEPES, 50 mM NaCl, 800 mM KF, 5 mM EDTA, 0.005% • Tween 20, 0.1% PF-127, pH 8.5 • Detection Reagent Z: 13.4 nM Anti-6His-d2 in detection buffer • d2 Reagent: Anti-6His-d2 (CisBio 61HISDLA)
Enzyme Reaction (15 min Pre-Incubation with Parkin, pUb and Activator Only) • Parkin: 196 nM • pUb: 196 nM • DMSO: 1% DMSO • E1: 5 nM • E2: 50 nM • Ubiquitin Eu: 8.8 nM • Reaction time: 120 minutes • Temperature: 22° C. • Total volume: 10 μl reaction
Take 10 μl of Enzyme Reaction above and add 10 μl detection Reagent Z under the following conditions:
Reaction time: 60 minutes
1) Load assay plate wells with 4.9 μl 400.0 nM Parkin, 400 nM pUb in reaction buffer by use of Eppendorf 12-channel pipette. 2) Deliver 0.1 μl 100× activator candidates in DMSO by use of Echo 555 compound dispenser. Highest 100× concentration=100 μm and then twofold dilutions. Add each compound and control in duplicate wells. 3) Spin 1000 rpm, 2 minutes, at room temp. 4) Incubate plate for 15 minutes at room temp. 5) Add 5 μl 10 nM E1, 100 nM E2, 17.6 nM Ubiquitin Eu and 2 mM ATP in Reaction Buffer by use of Eppendorf 12-channel pipette. 6) Spin 1000 rpm, 2 minutes, at room temp. 7) Incubate plate for 120 minutes at room temp. 8) Add 10 μl 13.4 nM anti his d2 in detection buffer by use of Eppendorf 12-channel pipette. 9) Spin 1000 rpm, 2 minutes, at room temp. 10) Incubate plate for 120 minutes at room temp. 11) Read plates on Perkin Elmer Envision instrument with the following parameters:
LANCE dual laser protocol loaded into the Envision® software
Top Mirror: LANCE/DELFIA Duel/Bias (Bar code 446) Emission Filter: APC 665 EM (Bar code 205) 2nd Emission Filter: Europium 615 EM (Bar code 203) Read […] (channel 1) and 615 nm (channel 2) wavelengths on Envision®
Data Analysis: The Data can be read in CSV files. There are two tables in those CSV files, which are the values of 655 nm (channel 1) and 615 nm (channel 2) wavelengths respectively. The data is converted to an HTRF Ratio=(Channel 1/Channel 2)*10,000
The average of all the 0 uM controls (DMSO only)=BKGD (Background—0% activation). Subtract BKGD from each HTRF Ratio value=HTRF-BKGD. The average of all the 100 uM control activator in DMSO controls=Max (100% activation). The following equation is then used to calculate % Activation for each well/candidate as follows: % Activation=(HTRF−BKGD/Max)*100.
XLFIT5 model 205 was applied for the data analysis. […]
(TR-FRET usually uses a lanthanide donor and a delayed reading to cut background.)
Consider `Cc1nc2c(-c3ccccc3)c(C)nn2c(S)c1Cc1ccccc1` [Compound A, 6-benzyl-2,5-dimethyl-3-phenylpyrazolo[1,5-a]pyrimidine-7-thiol], for which the “Parkin activity in an auto-ubiquitination assay” value is “increases”.
As for `Cc1cc(S)n2ncc(-c3ccc(F)cc3)c2n1` [Compound L, 3-(4-fluorophenyl)-5-methylpyrazolo[1,5-a]pyrimidine-7-thiol], the “Parkin activity in an auto-ubiquitination assay” value is on record as “increases”.

The same assay, now with this note: activation of pUb activated Parkin; read-out: Auto-ubiq EC50 (μM) [Example 3].
As for `Cc1cc(C)c2c(n1)nn1c(S)c(Cc3ccccc3)c(C)nc21` [RR], the EC50 is above 40 µM.
For the compound `Cc1nc2c(-c3ccccc3)c(C)nn2c(S)c1Cc1ccncc1` [Compound AA, 2,5-dimethyl-3-phenyl-6-(4-pyridylmethyl)pyrazolo[1,5-a]pyrimidine-7-thiol], the EC50 was above 40 µM.
As for `Cc1nc2c(-c3ccccc3)c(C)nn2c(O)c1Cc1ccccc1` [T], the EC50 is above 40 µM.
Regarding `Cc1nc2c(-c3ccccc3)c(C)nn2cc1Cc1ccccc1` [QQ], the EC50 is above 40 µM.
Turning to `Cc1cc2nc(C)c(Cc3ccccc3)c(O)n2n1` [Q], the EC50 is above 40 µM.
With `CC(C)(C)c1cc(O)n2ncc(-c3ccccc3)c2n1` [J], the EC50 was 13.4 µM.
In the case of `Cc1nc2c(-c3ccncc3)c(C)nn2c(S)c1Cc1ccccc1` [MM], the EC50 is above 40 µM.
In the case of `Cc1nc2c(C(F)(F)F)c(C)nn2c(S)c1Cc1ccccc1` [LL], the EC50 worked out at 16.5 µM.
Consider `COc1ccc(-c2cnn3c(O)cc(C)nc23)cc1` [Compound J3], for which the EC50 is above 40 µM.
In the case of `Cc1cc(S)n2ncc(-c3cnn(C)c3)c2n1` [VV], the EC50 was above 40 µM.
With `Cc1nn2c(S)c3c(nc2c1-c1ccccc1)COC3` [XX], the half-maximal effective concentration (EC50) was above 40 µM.
On the same count and under the same terms, then `Cc1nn2c(S)c(Cc3ccccc3)cnc2c1-c1ccccc1` [Compound DD, 6-benzyl-2-methyl-3-phenyl-pyrazolo[1,5-a]pyrimidin-7-thiol], with above 40 µM; and `Cc1ccc(-c2cnn3c(O)cc(C)nc23)cc1` [Compound H3], with above 40 µM; and `Cc1nn2c(S)c(CCc3ccccc3)cnc2c1-c1ccccc1` [Compound E3], with 29 µM.
On the same count and under the same terms, then `Cc1cc(S)n2nc(C)c(-c3ccc(Cl)cc3)c2n1` [N], with above 40 µM; and `CCCc1cc(S)n2nc(C)c(-c3ccccc3)c2n1` [Compound B], with above 40 µM; and `Cc1nc2c(-c3ccccn3)c(C)nn2c(O)c1Cc1ccccc1` [FF], with above 40 µM.
As for `Cc1nc2c(C(F)(F)F)c(C)nn2c(O)c1Cc1ccccc1` [JJ], the EC50 was above 40 µM.
Take `COc1ccc(-c2cnn3c(S)cc(C)nc23)cc1` [SS]: the EC50 was above 40 µM.
As for `Cc1cc2nc(C)c(Cc3ccc(Cl)cc3)c(S)n2n1` [Compound R, 6-[(4-chlorophenyl)methyl]-2,5-dimethyl-pyrazolo[1,5-a]pyrimidine-7-thiol], the EC50 was above 40 µM.
`Cc1nc2c(-c3ccccc3)c(C)nn2c(O)c1Cc1ccccn1` [Compound Y, 2,5-dimethyl-3-phenyl-6-(2-pyridylmethyl)pyrazolo[1,5-a]pyrimidin-7-ol]: the EC50 is above 40 µM.
For `CC(C)(C)c1cc(O)n2ncc(-c3ccc(Cl)cc3)c2n1` [Compound G], the EC50 was above 40 µM.
Consider `Cc1nc2c(-c3ccccc3)c(C)nn2c(S)c1Cc1ccccn1` [Compound BB, 2,5-dimethyl-3-phenyl-6-(2-pyridylmethyl)pyrazolo[1,5-a]pyrimidine-7-thiol], for which the EC50 was 8.8 µM.
For the compound `Cc1cc2nc(C)c(Cc3ccc(Cl)cc3)c(O)n2n1` [Compound P, 6-[(4-chlorophenyl)methyl]-2,5-dimethyl-pyrazolo[1,5-a]pyrimidin-7-ol], the EC50 turned out to be 20.1 µM.
For `Cc1nc2c(-c3cccnc3)c(C)nn2c(S)c1Cc1ccccc1` [Compound D3], the EC50 worked out at 21 µM.
For `Oc1c(Cc2ccccc2)cnc2c(-c3ccccc3)cnn12` [Compound W, 6-benzyl-3-phenyl-pyrazolo[1,5-a]pyrimidin-7-ol], the EC50 was above 40 µM.
Still for that read-out and setting: as for `CCc1nn2c(S)cc(C)nc2c1-c1ccc(F)cc1` [Compound I], the figure is 6.4 µM; as for `CNc1c2c(nc3c(-c4ccccc4)c(C)nn13)CCN(C)C2` [YY], above 40 µM; as for `Cc1nn2c(S)c(CC(C)C)cnc2c1-c1ccccc1` [Compound G3], above 40 µM.
For the compound `Cc1nc2c(C#N)c(C)nn2c(S)c1Cc1ccccc1` [OO], the EC50 is above 40 µM.
Consider `Cc1nn2c(O)c3c(nc2c1-c1ccccc1)CCN(C)C3` [Compound K3], for which the EC50 is above 40 µM.
Still for that read-out and setting: as for `Cc1ccc(-c2cnn3c(O)c4c(nc23)CN(C)CC4)cc1` [Compound P3], the figure is above 40 µM; as for `Cc1cc2nc(C)c(Cc3ccccc3)c(S)n2n1` [S], above 40 µM; as for `Cc1ccc(-c2cnn3c(S)c4c(nc23)CN(C)CC4)cc1` [Compound S3], above 40 µM.
As to `Cc1nn2c(O)c(Cc3ccccc3)cnc2c1-c1ccccc1` [Compound V, 6-benzyl-2-methyl-3-phenyl-pyrazolo[1,5-a]pyrimidin-7-ol], the EC50 is above 40 µM.
Turning to `COc1ccc(Cn2ccc(-c3cnn4c(S)cc(C)nc34)cc2=O)cc1` [Compound B3], the EC50 was above 40 µM.
Turning to `Cc1cc(S)n2ncc(-c3cccc(N(C)C)c3)c2n1` [UU], the EC50 is above 40 µM.
Same read-out and setting: as for `Cc1cc(O)n2ncc(-c3cccc(N(C)C)c3)c2n1` [Compound M3], the figure is above 40 µM.
Regarding `Cc1nc2c(-c3ccccc3)cnn2c(O)c1Cc1ccccc1` [Compound U, 6-benzyl-5-methyl-3-phenyl-pyrazolo[1,5-a]pyrimidin-7-ol], the EC50 is 14.7 µM.
On to `Cc1ccc(-c2cnn3c(S)cc(C)nc23)cc1` [TT], for which the EC50 is above 40 µM.
As for `Cc1cc(S)n2nc(C)c(-c3ccccc3)c2n1` [O], the EC50 was above 40 µM.
For the compound `Cc1cc(S)n2ncc(-c3ccc(F)cc3)c2n1` [Compound L, 3-(4-fluorophenyl)-5-methylpyrazolo[1,5-a]pyrimidine-7-thiol], the EC50 amounted to 27.1 µM.
Regarding `Cc1nn2c(O)c(CC(C)C)cnc2c1-c1ccccc1` [Compound I3], the EC50 was above 40 µM.
For the compound `Cc1nc2c(C(=O)N(C)C)c(C)nn2c(S)c1Cc1ccccc1` [II], the EC50 is above 40 µM.
Take `Cc1cc(O)n2nc(C)c(-c3ccc(Cl)cc3)c2n1` [M]: the EC50 is above 40 µM.
In the case of `Cc1nc2c(-c3ccccn3)c(C)nn2c(S)c1Cc1ccccc1` [HH], the EC50 is above 40 µM.
For the compound `Cc1nc2c(-c3ccccc3)cnn2c(S)c1Cc1ccccc1` [Compound CC, 6-benzyl-5-methyl-3-phenyl-pyrazolo[1,5-a]pyrimidin-7-thiol], the concentration giving a half-maximal response (EC50) was above 40 µM.
Still for that read-out and setting: as for `Cc1nc2c(C3CCN(C)CC3)c(C)nn2c(O)c1Cc1ccccc1` [Compound O3], the figure is above 40 µM; as for `Cc1nn2c(O)cc(C(C)(C)C)nc2c1-c1ccc(Cl)cc1` [F], above 40 µM; as for `COc1ccccc1-c1c(C)nn2c(S)cc(C)nc12` [Compound D], 11.7 µM.
As for `Cc1nc2c(C(=O)N(C)C)c(C)nn2c(O)c1Cc1ccccc1` [EE], the EC50 was above 40 µM.
`Cc1cc(C)c2c(n1)nn1c(S)cc(C)nc21` [Compound E]: the half-maximal effective concentration (EC50) was 10.1 µM.

As a reminder, the EC50 is the concentration that produces a half-maximal response.
